Laboratory results: patent US10744150B2, “Cyclic dinucleotides as anticancer agents” (BRISTOL-MYERS SQUIBB COMPANY, priority 2017, dated 2020)
Like-named read-outs stand apart in the source and are kept apart here.

Key:
[1] = biological target: T1, STING AQ: His-TVMV-S-hSTING(155-341)-G230A-R293Q (Homo sapiens, UniProt Q86WV6, G230A/H232R/R293Q); assay: STING HTRF binding assay (time resolved FRET competition), STING AQ; conditions: 20 nM His-tagged STING cytoplasmic domain, 40 nM fluorescein-labeled cGAMP analog probe, one hour; read-out: HTRF Binding Assays IC50 STING AQ
T1 construct: His-TVMV-S-hSTING(155-341)-G230A-R293Q
T1 sequence (Q86WV6 with tags, fused parts or gaps G230A/H232R/R293Q): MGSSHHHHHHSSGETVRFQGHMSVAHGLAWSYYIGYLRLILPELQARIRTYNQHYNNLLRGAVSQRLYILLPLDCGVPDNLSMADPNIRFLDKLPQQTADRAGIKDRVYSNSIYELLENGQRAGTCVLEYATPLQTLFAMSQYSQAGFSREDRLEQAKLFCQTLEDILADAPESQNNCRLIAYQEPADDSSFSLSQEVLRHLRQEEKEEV
Protocol: (§1) A time resolved FRET-based competition binding assay was used to assess test article binding to STING WT and STING AQ. His-tagged STING cytoplasmic domain (WT or AQ) at a concentration of 20 nM was incubated with 2.5 nM Tb-labeled anti-His antibody, test compound, and fluorescein-labeled cGAMP analog probe (BioLog cat. no. C195) at a concentration of 200 nM (STING WT) or 40 nM (STING AQ) in PBS containing 0.005% Tween-20 and 0.1% BSA for one hour. Fluorescence at 495 nm and 520 nm was measured using an EnVision microplate reader to quantify FRET between Tb-labeled anti-His antibody and fluorescein-labeled probe. Background was defined as the signal obtained in the absence of STING protein, and background subtracted FRET ratios were normalized to the maximum signal obtained in the absence of test compound. These values were converted to a percent inhibition. Percent inhibition was determined for test compounds at 11 concentrations. The IC50, defined as the concentration of competing test compound needed to reduce specific binding of the probe by 50%, was calculated using the 4 parameter logistic equation to fit the data

IRF3 = assay: STING THP1 reporter assay, IRF pathway (secreted luciferase Lucia, QUANTI-Luc); assay type: cell-based; conditions: THP1-Dual cells, 10% human plasma, 100% activation = 100 μM cGAMP, luciferase readout, read-out: THP1 Reporter Assays EC50 IRF3
Description: (§2) THP1-Dual™ cells were derived from the human THP-1 monocyte cell line by stable integration of two inducible reporter constructs. To this end, THP1-Dual™ cells allow the simultaneous study of the NF-κB pathway, by monitoring the activity of SEAP, and the IRF pathway by assessing the activity of a secreted luciferase (Lucia). Both reporter proteins are readily measurable in the cell culture supernatant when using QUANTI-Blue™, a SEAP detection reagent, and QUANTI-Luc™, a luciferase detection reagent.
(§3) THP1-Dual™ cells induce the activation of NF-κB in response to STING agonists. They also trigger the IRF pathway upon stimulation with STING agonists, such as cGAMP. Here, the THP-1-Dual cells were used to assess STING binders for function on the cellular level.
(§4) Serial dilutions of compounds in DMSO were added to low volume 384 well plates at 100 nl/well using an ECHO acoustic dispenser (Labcyte, model 550) to achieve final starting concentration of 100 μM in cell suspension. THP-1 Dual™ STING reporter cells (Invivogen, Dual cells cat # THPD-nfis) were added to the plates with compounds at 15,000 cells in 10 μL per well in RPMI media (Gibco, cat #11875) containing 10% human plasma in a low volume 384-well black wall clear bottom tissue culture plate (Corning, cat #3542) for SEAP assay and low volume solid white plate (Corning, cat #3826) for luciferase assay. One column of the plate was reserved for treatment with cGAMP at 100 μM for 100% activation calculation and one column for no treatment (DMSO only) for baseline activation. Plates were then incubated in 37° C. incubator at 5% CO2 for 20 hours.
(§5) In the SEAP assay, 5 μl of 2× QuantiBlue (Invivogen, cat # Rep-qb2) is added to 384 well black plates seeded with THP1 cells and incubated at 37° C. for 2 hours. Plates were read on the Envision (Perkin Elmer) at 620 nm wavelength (OD620). In the luciferase assay, 5 μl of Quantiluc (Invivogen, Rep-qlc2) is added to white 384 well plates seeded with THP1 cells and read at 5 minutes on the Envision (Perkin Elmer) using a luminescence protocol (RLU). For both cell lines, 100% activation was determined by value (RLU) of THP-1 Dual STING cells stimulated with 100 μM cGAMP (Invivogen, cat # TLRL-NACGA23-5).

NFkB = assay: STING THP1 reporter assay, NF-κB pathway (SEAP, QUANTI-Blue); assay type: cell-based; conditions: THP1-Dual cells, 10% human plasma, 100% activation = 100 μM cGAMP
Description: as §2, §3, §4, §5

[2] = biological target: T2, STING WT: His-TVMV-S-hSTING(155-341)-H232R (Homo sapiens, UniProt Q86WV6, H232R); assay: STING HTRF binding assay (time resolved FRET competition), STING WT; conditions: 20 nM His-tagged STING cytoplasmic domain, 200 nM fluorescein-labeled cGAMP analog probe, one hour; read-out: HTRF Binding Assays IC50 STING WT
T2 construct: His-TVMV-S-hSTING(155-341)-H232R
T2 sequence (Q86WV6 with tags, fused parts or gaps H232R): as the sequence (Q86WV6 with tags, fused parts or gaps G230A/H232R/R293Q) above, with A99G, Q162R counted along it
Protocol: as §1

[3] = 20 hours, SEAP readout OD620, read-out: THP1 Reporter Assays EC50 NFkB
[4] = Homo sapiens, THP-1, 20 h, SEAP readout OD620, read-out: THP1 Reporter Assays EC50 NFkB

Compound	IC50 [1] [µM]	EC50 (IRF3; 20 hours) [µM]	EC50 (NFkB; [3]) [µM]	IC50 [2] [µM]	EC50 (IRF3; Homo sapiens, THP-1, 20 h) [µM]	EC50 (NFkB; [4]) [µM]
NC(=O)c1cccc2c1nnn2[C@@H]1C[C@@H]2COP(O)(=S)O[C@H]3[C@@H](F)[C@H](n4cnc5c(N)ncnc54)O[C@@H]3COP(O)(=S)OC[C@H]21 (single isomer, unassigned) [Example 13-4]	0.05	86	> 100	3		
O=c1[nH]c2nccn2c2c1ncn2[C@@H]1O[C@@H]2COP(=O)(S)OC[C@@H]3[C@@H](COP(=O)(S)O[C@@H]1[C@@H]2O)C[C@H]3n1cnc2c(O)ncnc21 (single isomer, unassigned) [Example 14-1]	4.5			83	> 100	> 100
O=c1[nH]c2nccn2c2c1ncn2[C@@H]1O[C@@H]2COP(=O)(S)OC[C@@H]3[C@@H](COP(=O)(S)O[C@@H]1[C@@H]2O)C[C@H]3n1cnc2c(O)ncnc21 (single isomer, unassigned) [Example 14-2]	5.1	> 100	> 100	25.5		
O=c1[nH]c2nccn2c2c1ncn2[C@@H]1O[C@@H]2COP(=O)(S)OC[C@@H]3[C@@H](COP(=O)(S)O[C@@H]1[C@@H]2O)C[C@H]3n1cnc2c(O)ncnc21 (single isomer, unassigned) [Example 14-3]	1.7	> 100	> 100	14.3		
O=c1[nH]c2nccn2c2c1ncn2[C@@H]1O[C@@H]2COP(=O)(S)OC[C@@H]3[C@@H](COP(=O)(S)O[C@@H]1[C@@H]2O)C[C@H]3n1cnc2c(O)ncnc21 (single isomer, unassigned) [Example 14-4]	0.92	> 100	> 100	4.3		
Nc1ncnc2c1ncn2[C@@H]1C[C@@H]2COP(O)(=S)O[C@@H]3[C@H](O)[C@@H](COP(O)(=S)OC[C@H]21)O[C@H]3n1cnc2c(O)nc3nccn3c21 (single isomer, unassigned) [Example 15-1]	4.4			33.5	> 100	> 100
Nc1ncnc2c1ncn2[C@@H]1C[C@@H]2COP(O)(=S)O[C@@H]3[C@H](O)[C@@H](COP(O)(=S)OC[C@H]21)O[C@H]3n1cnc2c(O)nc3nccn3c21 (single isomer, unassigned) [Example 15-2]	1.8	> 100	> 100	26.9		
Nc1ncnc2c1ncn2[C@@H]1C[C@@H]2COP(O)(=S)O[C@@H]3[C@H](O)[C@@H](COP(O)(=S)OC[C@H]21)O[C@H]3n1cnc2c(O)nc3nccn3c21 (single isomer, unassigned) [Example 15-3]	1.2	> 100	> 100	32.6		
Nc1ncnc2c1ncn2[C@@H]1C[C@@H]2COP(O)(=S)O[C@@H]3[C@H](O)[C@@H](COP(O)(=S)OC[C@H]21)O[C@H]3n1cnc2c(O)nc3nccn3c21 (single isomer, unassigned) [Example 15-4]	0.47	> 100	> 100	3.9		
Nc1ncnc2c1ncn2[C@@H]1C[C@@H]2COP(O)(=S)O[C@H]3[C@H](F)[C@H](n4cnc5c(N)ncnc54)O[C@@H]3COP(O)(=S)OC[C@H]21 (single isomer, unassigned) [Example 17-1]	> 100		2	> 100	> 100	
Nc1ncnc2c1ncn2[C@@H]1C[C@@H]2COP(O)(=S)O[C@H]3[C@H](F)[C@H](n4cnc5c(N)ncnc54)O[C@@H]3COP(O)(=S)OC[C@H]21 (single isomer, unassigned) [Example 17-2]	1.9	> 100	> 100	> 100		
Nc1nc2c(ncn2[C@@H]2C[C@@H]3COP(O)(=S)O[C@H]4[C@@H](F)[C@H](n5cnc6c(N)ncnc65)O[C@@H]4COP(O)(=S)OC[C@H]32)c(=O)[nH]1 (single isomer, unassigned) [Example 18-1]	0.002	0.6	2.6	0.004		
Nc1nc2c(ncn2[C@@H]2C[C@@H]3COP(O)(=S)O[C@H]4[C@@H](F)[C@H](n5cnc6c(N)ncnc65)O[C@@H]4COP(O)(=S)OC[C@H]32)c(=O)[nH]1 (single isomer, unassigned) [Example 18-2]	0.02	> 100	> 100	0.15		
Nc1nc2c(ncn2[C@@H]2C[C@@H]3COP(O)(=S)O[C@H]4[C@@H](F)[C@H](n5cnc6c(N)ncnc65)O[C@@H]4COP(O)(=S)OC[C@H]32)c(=O)[nH]1 (single isomer, unassigned) [Example 18-3]	0.02	> 100	> 100	0.52		
Nc1nc2c(ncn2[C@@H]2C[C@@H]3COP(O)(=S)O[C@H]4[C@@H](F)[C@H](n5cnc6c(N)ncnc65)O[C@@H]4COP(O)(=S)OC[C@H]32)c(=O)[nH]1 (single isomer, unassigned) [Example 18-4]	0.004	> 100	74.5	0.05		
Nc1ncnc2c1ncn2[C@@H]1C[C@@H]2COP(=O)(O)O[C@H]3[C@@H](F)[C@H](n4cnc5c(N)ncnc54)O[C@@H]3COP(=O)(O)OC[C@H]21 [Example 10, (1R,6S,8R,9R,15R,17R,18R)-8,17-bis(6-amino-9H-purin-9-yl)-18-fluoro-3,12-dihydroxy-2,4,11,13,16-pentaoxa-3λ^5,12λ^5-diphosphatricyclo[13.3.0.0^6,9]octadecane-3,12-dione]	0.04			5.2	> 100	> 100
Nc1ncnc2c1ncn2[C@@H]1C[C@@H]2COP(O)(=S)O[C@H]3[C@@H](O)[C@H](n4cnc5c(O)ncnc54)O[C@@H]3COP(O)(=S)OC[C@H]21 (stereo partly drawn) [Example 16, (1S,6S,8R,9R,15R,17R,18R)-8-(6-amino-9H-purin-9-yl)-3,12,18-trihydroxy-17-(6-hydroxy-9H-purin-9-yl)-2,4,11,13,16-pentaoxa-3λ^5,12λ^5-diphosphatricyclo[13.3.0.0^6,9]octadecane-3,12-dithione]	0.23			17.9	> 100	31
